Active and inactive are the calls of the source. The calls are words filed in the database; no cut-off is given here.
Legend:
[1] = molecular target: T1, Protein-glutamine gamma-glutamyltransferase (Homo sapiens) (UniProt P21980); assay: Inhibition of TG2 (unknown origin) using Cbz-Glu(gamma-p-nitrophenyl ester)Gly (AL5) as substrate assessed as Kinact/Ki ratio and measured by colorimetric assay
T1 sequence (whole entry): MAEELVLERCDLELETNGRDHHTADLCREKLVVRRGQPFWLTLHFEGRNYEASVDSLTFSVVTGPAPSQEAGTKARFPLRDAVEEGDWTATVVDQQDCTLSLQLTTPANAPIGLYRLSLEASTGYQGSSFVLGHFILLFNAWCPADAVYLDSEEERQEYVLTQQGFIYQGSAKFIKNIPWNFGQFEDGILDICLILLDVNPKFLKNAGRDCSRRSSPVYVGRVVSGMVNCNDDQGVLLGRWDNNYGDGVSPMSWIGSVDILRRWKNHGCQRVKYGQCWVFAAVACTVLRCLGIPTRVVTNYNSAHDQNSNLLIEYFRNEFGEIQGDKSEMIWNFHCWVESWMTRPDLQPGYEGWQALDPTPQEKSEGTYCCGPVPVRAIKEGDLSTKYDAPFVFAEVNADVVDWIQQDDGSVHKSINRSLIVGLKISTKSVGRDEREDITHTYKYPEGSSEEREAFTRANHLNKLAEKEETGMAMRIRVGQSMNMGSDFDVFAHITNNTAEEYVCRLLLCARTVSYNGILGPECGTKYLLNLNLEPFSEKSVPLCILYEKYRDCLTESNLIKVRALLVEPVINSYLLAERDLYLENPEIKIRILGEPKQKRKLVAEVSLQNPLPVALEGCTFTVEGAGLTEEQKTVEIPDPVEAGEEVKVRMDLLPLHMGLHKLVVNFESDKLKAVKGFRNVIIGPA

[2] = molecular target: T1, Protein-glutamine gamma-glutamyltransferase (Homo sapiens); assay: (§1) Inhibition of TG2 (unknown origin) using Cbz-Glu(gamma-p-nitrophenyl ester)Gly (AL5) as substrate and measured by colorimetric assay
[3] = molecular target: T2, Protein-glutamine gamma-glutamyltransferase (Homo sapiens, UniProt P21980); assay: as §1
T2 sequence (P21980 whole entry): T1 sequence (whole entry)

[4] = Anti-invasion activity against human SCC-13 cells assessed as inhibition of invasion incubated for 18 hrs by matrigel trans well plate assay; assay type: functional, cell-based; details: SCC-13, 18 h
[5] = molecular target: T1, Protein-glutamine gamma-glutamyltransferase (Homo sapiens); assay: Inhibition of GTP binding to TG2 (unknown origin) measured by GTP Gamma-S-FL BODIPY assay
[6] = Half-life in plasma (unknown origin); assay type: ADME, cell-free
[7] = Plasma protein binding (unknown origin); assay type: ADME, cell-free; details: read-out: PPB (converted)
[8] = Plasma protein binding (unknown origin) assessed as drug recovery; assay type: ADME, cell-free; details: read-out: Drug recovery
[9] = test system: MDR1 (P-gp); assay: Apparent permeability from apical to basolateral side in dog MDCK-MDR1 cells; assay type: ADME, cell-based, Canis lupus familiaris
[10] = test system: MDR1 (P-gp); assay: Apparent permeability from basolateral to apical side in dog MDCK-MDR1 cells; assay type: ADME, cell-based, Canis lupus familiaris
[11] = test system: MDR1 (P-gp); assay: Efflux ratio of apparent permeability in dog MDCK-MDR1 cells; assay type: ADME, cell-based, Canis lupus familiaris
[12] = test system: P-gp; assay: Substrate activity at P-gp in dog MDCK cells assessed as apparent permeability across apical to basolateral membrane; assay type: ADME, cell-based, Canis lupus familiaris; details: MDCK-MDR1
[13] = test system: P-gp; assay: Substrate activity at P-gp in dog MDCK cells assessed as apparent permeability across basolateral to apical membrane; assay type: ADME, cell-based, Canis lupus familiaris; details: MDCK-MDR1
[14] = test system: P-gp; assay: Substrate activity at P-gp in dog MDCK cells assessed as efflux ratio; assay type: ADME, cell-based, Canis lupus familiaris; details: MDCK-MDR1

| SMILES | Ratio [1] | Kinact [2] | other results |
| --- | --- | --- | --- |
| C=CC(=O)NCCCC[C@H](NC(=O)OCc1ccccc1)C(=O)N1CCN(S(=O)(=O)c2cccc3c(N(C)C)cccc23)CC1 | 100 10^3/M/min | 0.38 min⁻¹ | Ki [3]: 3.8 µM; EC50 [4]: 3.9 µM |
| C=CC(=O)NCCCC[C@H](NC(=O)c1ccc(F)cc1)C(=O)N1CCN(C(=O)c2cccc3ccccc23)CC1 | 55.4 10^3/M/min | 0.9 min⁻¹ |  |
| C=CC(=O)NCCCC[C@H](NS(=O)(=O)CC)C(=O)N1CCN(C(=O)c2cccc3ccccc23)CC1 | 31.1 10^3/M/min | 0.83 min⁻¹ |  |
| C=CC(=O)NCCCC[C@H](NC(=O)Cc1ccccc1C(F)(F)F)C(=O)N1CCN(C(=O)c2cccc3ccccc23)CC1 | 100 10^3/M/min | 1 min⁻¹ |  |
| C=CC(=O)NCCCC[C@H](NC(=O)CC1CCCCC1)C(=O)N1CCN(C(=O)c2cccc3ccccc23)CC1 | 20.9 10^3/M/min | 0.26 min⁻¹ |  |
| C=CC(=O)NCCCC[C@H](NC(=O)c1ccccn1)C(=O)N1CCN(C(=O)c2cccc3ccccc23)CC1 | 9.6 10^3/M/min | 0.39 min⁻¹ |  |
| C=CC(=O)NCCCC[C@H](NC(=O)Cc1cccc(Cl)c1)C(=O)N1CCN(C(=O)c2cccc3ccccc23)CC1 | 290 10^3/M/min | 0.3 min⁻¹ |  |
| C=CC(=O)NCCCC[C@H](NC(=O)C1C2CC3CC(C2)CC1C3)C(=O)N1CCN(C(=O)c2cccc3ccccc23)CC1 (stereo partly specified) | 14.9 10^3/M/min | 0.23 min⁻¹ |  |
| C=CC(=O)NCCCC[C@H](NC(=O)Cc1ccccc1Br)C(=O)N1CCN(C(=O)c2cccc3ccccc23)CC1 | 310 10^3/M/min | 3.1 min⁻¹ | EC50 [4]: 94 µM |
| C=CC(=O)NCCCC[C@H](NC(=O)C1CCCCC1)C(=O)N1CCN(C(=O)c2cccc3ccccc23)CC1 | 33.6 10^3/M/min | 0.33 min⁻¹ |  |
| C=CC(=O)NCCCC[C@H](NC(=O)c1cccnc1)C(=O)N1CCN(C(=O)c2cccc3ccccc23)CC1 | 23.3 10^3/M/min | 0.59 min⁻¹ |  |
| C=CC(=O)NCCCC[C@H](NC(=O)Cc1ccccc1)C(=O)N1CCN(c2ccc([N+](=O)[O-])nc2)CC1 | 508 10^3/M/min |  |  |
| C=CC(=O)NCCCC[C@H](NC(=O)c1cccc2ccccc12)C(=O)N1CCN(C(=O)c2cccc3ccccc23)CC1 | 20.1 10^3/M/min | 0.41 min⁻¹ |  |
| C=CC(=O)NCCCC[C@H](NC(=O)Cc1ccccc1)C(=O)N1CCN(c2cccnc2)CC1 | 391 10^3/M/min |  |  |
| C=CC(=O)NCCCC[C@H](NS(=O)(=O)c1ccccc1)C(=O)N1CCN(C(=O)c2cccc3ccccc23)CC1 | 7.1 10^3/M/min | 0.63 min⁻¹ |  |
| C=CC(=O)NCCCC[C@H](NC(=O)Cc1cccc(F)c1)C(=O)N1CCN(C(=O)c2cccc3ccccc23)CC1 | 155 10^3/M/min | 0.75 min⁻¹ |  |
| C=CC(=O)NCCCC[C@H](NC(C)=O)C(=O)N1CCN(C(=O)c2cccc3ccccc23)CC1 | 44.1 10^3/M/min | 1.45 min⁻¹ |  |
| C=CC(=O)NCCCC[C@H](NC(=O)CCc1ccccc1)C(=O)N1CCN(C(=O)c2cccc3ccccc23)CC1 | 214 10^3/M/min | 0.6 min⁻¹ |  |
| C=CC(=O)NCCCC[C@H](NC(=O)Cc1ccccc1F)C(=O)N1CCN(C(=O)c2cccc3ccccc23)CC1 | 443 10^3/M/min | 0.46 min⁻¹ | inhibition [5]: Active; half-life [6]: 17.9 h; fraction unbound [7]: 0.16; recovery [8]: 86%; Papp A→B [9]: 0.29 ×10⁻⁶ cm/s; Papp B→A [10]: 18.2 ×10⁻⁶ cm/s; efflux ratio [11]: 61.7; Papp A→B [12]: 2.2 ×10⁻⁶ cm/s; Papp B→A [13]: 2.8 ×10⁻⁶ cm/s; efflux ratio [14]: 1.3; EC50 [4]: 77 µM |
| C=CC(=O)NCCCC[C@H](NS(=O)(=O)Cc1ccccc1)C(=O)N1CCN(C(=O)c2cccc3ccccc23)CC1 | 11.4 10^3/M/min | 0.53 min⁻¹ |  |
| C=CC(=O)NCC(=O)N1CCN(S(=O)(=O)c2cccc3c(N(C)C)cccc23)CC1 |  | 0.387 min⁻¹ | Ki [3]: 1.31 µM |
| C=CC(=O)NCCCC[C@H](NC(=O)CC(C)C)C(=O)N1CCN(C(=O)c2cccc3ccccc23)CC1 | 66.7 10^3/M/min | 0.64 min⁻¹ |  |

| SMILES | Ratio [1] | Kinact [2] | other results |
| --- | --- | --- | --- |
| C=CC(=O)NCCCC[C@H](NC(=O)c1cncn1C)C(=O)N1CCN(C(=O)c2cccc3ccccc23)CC1 | 12.6 10^3/M/min | 0.28 min⁻¹ | Ki [3]: 22.3 µM |
| C=CC(=O)NCCCC[C@H](NC(=O)CCCc1ccccc1)C(=O)N1CCN(C(=O)c2cccc3ccccc23)CC1 | 39.6 10^3/M/min | 0.21 min⁻¹ |  |
| C=CC(=O)NCCCC[C@H](NC(=O)Cc1ccc(F)cc1)C(=O)N1CCN(C(=O)c2cccc3ccccc23)CC1 | 119 10^3/M/min | 0.49 min⁻¹ |  |
| C=CC(=O)NCCCC[C@H](NC(=O)Cc1ccc(Cl)c(Cl)c1)C(=O)N1CCN(C(=O)c2cccc3ccccc23)CC1 | 131 10^3/M/min | 0.08 min⁻¹ |  |
| C=CC(=O)NCCCC[C@H](NC(=O)Cc1cccc(Cl)c1Cl)C(=O)N1CCN(C(=O)c2cccc3ccccc23)CC1 | 170 10^3/M/min | 0.46 min⁻¹ |  |
| C=CC(=O)NCCCC[C@H](NC(=O)c1ccncc1)C(=O)N1CCN(C(=O)c2cccc3ccccc23)CC1 | 12.7 10^3/M/min | 0.24 min⁻¹ |  |
| C=CC(=O)NCCCC[C@H](NC(=O)OCc1ccccc1)C(=O)NCCOCCOCCNS(=O)(=O)c1cccc2c(N(C)C)cccc12 | 14 10^3/M/min | 0.41 min⁻¹ | Ki [3]: 29 µM; EC50 [4]: 20 µM |
| C=CC(=O)NCCCC[C@H](NC(=O)c1cccc(F)c1)C(=O)N1CCN(C(=O)c2cccc3ccccc23)CC1 | 47.8 10^3/M/min | 0.64 min⁻¹ |  |
| C=CC(=O)NCCCC[C@H](NC(=O)Cc1ccccc1OC)C(=O)N1CCN(C(=O)c2cccc3ccccc23)CC1 | 299 10^3/M/min | 1.4 min⁻¹ |  |
| C=CC(=O)NCCCC[C@H](NC(=O)Cc1ccc(F)cc1F)C(=O)N1CCN(C(=O)c2cccc3ccccc23)CC1 | 224 10^3/M/min | 0.62 min⁻¹ |  |
| C=CC(=O)NCCCC[C@H](NC(=O)Cc1ccccc1C)C(=O)N1CCN(C(=O)c2cccc3ccccc23)CC1 | 352 10^3/M/min | 2.1 min⁻¹ | half-life [6]: 9.47 h; fraction unbound [7]: 0.15; recovery [8]: 93%; Papp A→B [9]: 0.32 ×10⁻⁶ cm/s; Papp B→A [10]: 16.5 ×10⁻⁶ cm/s; efflux ratio [11]: 51.6; Papp A→B [12]: 3.2 ×10⁻⁶ cm/s; Papp B→A [13]: 3 ×10⁻⁶ cm/s; efflux ratio [14]: 0.93 |
| C=CC(=O)NCCCC[C@H](NC(=O)C(C)(C)C)C(=O)N1CCN(C(=O)c2cccc3ccccc23)CC1 | 56.2 10^3/M/min | 0.49 min⁻¹ |  |
| C=CC(=O)NCCCC[C@H](NC(=O)c1ccc2ccccc2c1)C(=O)N1CCN(C(=O)c2cccc3ccccc23)CC1 | 36.5 10^3/M/min | 0.29 min⁻¹ |  |
| C=CC(=O)NCCCC[C@H](NC(=O)c1ccccc1F)C(=O)N1CCN(C(=O)c2cccc3ccccc23)CC1 | 39.4 10^3/M/min | 0.39 min⁻¹ |  |
| C=CC(=O)NCCCC[C@H](NC(=O)OCc1ccccc1)C(=O)N1CCN(C(=O)c2cccc3ccccc23)CC1 | 244 10^3/M/min | 1.2 min⁻¹ | Ki [3]: 4.8 µM |
| C=CC(=O)NCCCC[C@H](NS(C)(=O)=O)C(=O)N1CCN(C(=O)c2cccc3ccccc23)CC1 | 22.6 10^3/M/min | 0.57 min⁻¹ | Ki [3]: 253 µM |
| C=CC(=O)NCCCC[C@H](NC(=O)CC)C(=O)N1CCN(C(=O)c2cccc3ccccc23)CC1 | 103 10^3/M/min | 0.53 min⁻¹ |  |
| C=CC(=O)NCCCC[C@H](NC(=O)C(C)C)C(=O)N1CCN(C(=O)c2cccc3ccccc23)CC1 | 65.1 10^3/M/min | 0.65 min⁻¹ |  |
| C=CC(=O)NCCCC[C@H](NC(=O)Cc1ccccc1Cl)C(=O)N1CCN(C(=O)c2cccc3ccccc23)CC1 | 295 10^3/M/min | 5.3 min⁻¹ | EC50 [4]: 92 µM |
| C=CC(=O)NCCCC[C@H](NC(=O)C1CC1)C(=O)N1CCN(C(=O)c2cccc3ccccc23)CC1 | 96.6 10^3/M/min | 1.02 min⁻¹ |  |
| C=CC(=O)NCCCC[C@H](NC(=O)c1cn(C)cn1)C(=O)N1CCN(C(=O)c2cccc3ccccc23)CC1 | 16 10^3/M/min | 0.46 min⁻¹ | Ki [3]: 28.7 µM |
| C=CC(=O)NCCCC[C@H](NC(=O)c1nccn1C)C(=O)N1CCN(C(=O)c2cccc3ccccc23)CC1 | 11.5 10^3/M/min | 0.18 min⁻¹ |  |

Reference: ChEMBL document CHEMBL5154739, “Structure-activity relationships of N-terminal variants of peptidomimetic tissue transglutaminase inhibitors” (Eur J Med Chem, 2022)
